# In the oligonucleotide strings, read from the 5' end, every base follows the letter of its sugar. An asterisk marks phosphorothioate; unmarked linkages are phosphodiester. Other units and linkages are bracketed, terminal groups are in braces. A string of capitals states the bases alone. d = 2'-deoxy (DNA)
# How the values were obtained:
# [1] = system: RAW264.7 cells; test: Nitric oxide (NO) production, Griess reaction; format: cell-based, mouse; conditions: with 1 μM mEN101
# [2] = system: RAW264.7 cells; test: Nitric oxide (NO) production, Griess reaction; format: cell-based, mouse; conditions: for effect on 10 μM mEN101-driven increases in NO: added with 10 μM mEN101
# Procedure: The mouse macrophage cell line RAW 264.7 (ATCC, Bethesda, Md.) was cultured in Dulbecco's modified Eagle's medium (DMEM) (Biological Industries) supplemented with 10% heat-inactivated fetal bovine serum (Biological Industries, Israel), 100 μg/ml streptomycin, 100 U/ml penicillin (Sigma) and 2 mM 1-glutamine (Biological Industries) at 37° C. in a humidified atmosphere with 5% CO2.
# (§1) Determination of nitric oxide (NO) production: Nitrite concentration in the medium of cultured cells was measured as an indicator of NO production according to the Griess reaction. 1×10^5 mouse RAW264.7 cells were grown in 0.5 ml medium in 48-wells plate until 80% confluence was obtained. […] (1% sulfanilamide, 0.1% naphthylethylenediamine dihydrochloride, 5% H3PO4). Absorbance was read at 540 nm after 10 min using SPECTRAFluor Plus spectrophotometer (TECAN, UK).
# To further characterize the TLR9 activating features of mEN101, mEN101 was applied to RAW264.7 cells (n=4 repeats) for 24 hours and the subsequent production of inflammatory markers was quantified. […] Addition of chloroquine (CQ), a weak base that perturbs endosomal pH and thus disturbs endosomal maturation, as well as the specific TLR9 inhibiting oligonucleotides ODN2088 and ODN TTAGGG (17), all blocked the 10 μM mEN101-driven increases in NO (p<0.015) (FIG. 2A). Thus, both gain and loss of function tests validated the nature of mEN101 as an endosomally active TLR9 activator, albeit a weak one.
# [3] = system: RAW264.7 cells; test: LPS-induced NO production with or without corticosterone after ODN1826 pre-incubation; format: cell-based, mouse; conditions: 10 or 50 mM corticosterone, LPS 1 μg/ml, 24 hours
# Procedure: as §1, with “nitric oxygen” for “nitric oxide”, “production: The nitrite” for “production: Nitrite”, “medium” for “medium of cultured cells”, “1×10^5” for “1×10^5 mouse”, “10 minutes” for “10 min”
# In order to study the functional effects of TLR9 activation on GR signaling, RAW264.7 cells were incubated with varying concentrations of ODN1826 (SEQ ID NO: 2) for 24 hours and the medium was replaced with one containing LPS (1 μg/ml) with or without […] corticosterone (CORT) for an additional 24 hours. As expected, CORT blocked lipopolysaccharide (LPS)-induced NO production.
# [4] = target: T1, glucocorticoid receptor (GR) (Mus musculus, UniProt P06537); test: Glucocorticoid receptor whole cell [3H]dexamethasone binding assay, RAW264.7; format: cell-based; set-up: host or cells: RAW264.7 (mouse macrophage cell line)
# T1 sequence (P06537 1-792): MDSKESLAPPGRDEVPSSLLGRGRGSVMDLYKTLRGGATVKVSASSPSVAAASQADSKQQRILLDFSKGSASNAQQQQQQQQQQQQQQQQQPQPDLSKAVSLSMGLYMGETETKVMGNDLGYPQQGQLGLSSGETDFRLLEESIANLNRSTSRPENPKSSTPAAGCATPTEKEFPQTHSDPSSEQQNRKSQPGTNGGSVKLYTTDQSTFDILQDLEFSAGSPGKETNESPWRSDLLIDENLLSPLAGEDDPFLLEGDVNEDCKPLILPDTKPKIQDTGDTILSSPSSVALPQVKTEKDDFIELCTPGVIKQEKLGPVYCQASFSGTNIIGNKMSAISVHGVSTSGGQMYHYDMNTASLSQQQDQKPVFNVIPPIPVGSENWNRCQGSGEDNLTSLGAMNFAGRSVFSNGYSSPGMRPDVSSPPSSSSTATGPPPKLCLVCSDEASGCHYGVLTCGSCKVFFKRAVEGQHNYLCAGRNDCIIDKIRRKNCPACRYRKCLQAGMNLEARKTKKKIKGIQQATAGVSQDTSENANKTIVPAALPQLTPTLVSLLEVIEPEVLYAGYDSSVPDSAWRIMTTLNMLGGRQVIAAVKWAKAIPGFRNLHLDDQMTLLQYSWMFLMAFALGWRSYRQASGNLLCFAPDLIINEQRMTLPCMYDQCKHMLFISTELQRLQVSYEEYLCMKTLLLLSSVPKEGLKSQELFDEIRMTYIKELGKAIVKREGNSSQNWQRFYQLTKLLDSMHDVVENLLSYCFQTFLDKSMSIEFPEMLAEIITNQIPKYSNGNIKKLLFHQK
# Procedure: Glucocorticoid receptor assay: A whole cell binding assay was used to determine GR number and affinity. 0.7×10^6 RAW264.7 cells in 2 ml medium were grown in 24-wells plates until 80% confluence was obtained. After the appropriate treatment, the medium was replaced with a saturating concentration of 50 nM [^3H]dexamethasone (85.0 Ci/mmol) (Amersham Biosciences, NJ, USA) in 5 μM unlabeled dexamethasone (Sigma, Israel). After incubation for 2 hours at 37° C., cells were washed 6 times with cold PBS and lysed in 1M NaOH. Lysates were harvested and counted in a beta-spectrometer.
# Since HSP90 modulates GR activity by increasing its affinity to glucocorticoids (GCs) it was wondered whether such an effect could be obtained by activating TLR9. In order to challenge that hypothesis, RAW264.7 cells were incubated with varying concentrations of hEN101 for 24 hours and the medium was subsequently replaced with one containing different concentration of 50 nM [^3H]dexamethasone and 5 μM unlabeled dexamethasone. After a 2 hour incubation, radioactivity was measured in a beta-spectrometer.
# [5] = system: RAW264.7 cells; test: HSP90 and GR immunostaining and colocalization, confocal microscopy; format: cell-based, mouse; conditions: 24 h, 1-10 μM
# Procedure: Immunohistochemistry: Cells were fixed with 4% PFA in phosphate-buffered saline (PBS) for 15 minutes at room temperature (RT), washed and transferred to 100% MetOH at −20° C. for 5 minutes. Afterwards, cells were washed twice with a blocking medium containing PBS, 1% bovine serum albumin (BSA) and 0.01% NaN3 and then were incubated for 1 hour at RT with anti-HSP90 and anti-GR antibodies (1:50) (Santa Cruz Biotechnology, CA). After incubation, cells were washed twice in blocking medium and incubated with 1:100 secondary antibodies (Jackson Immunoresearch Laboratories, PA). Slides were mounted onto glass slides and visualized by confocal microscopy.
# [6] = system: splenocytes; test: IFN-γ induction in splenocytes (ELISA); format: cell-based, mouse; conditions: mEN101 even at 10 μM doses
# Procedure: Cell cultures: Spleens were removed from 5-6 week old FVB/N mice (Harlan Laboratories, Israel) and mashed until a homogeneous cell suspension was obtained. The suspension was centrifuged in a LSM Lymphocyte Separation Medium (MP Biomedicals, Solon, Ohio) and the mononuclear cell layer was separated. Cells were adjusted to a 5×10^6 cells/ml and cultured in RPMI 1640 (Biological Industries, Israel) supplemented with 5% FCS, […] L-glut, 100 μg/ml streptomycin, 100 U/ml penicillin and 5×10^−5 2-mercaptoethanol (Sigma, Israel).
# ELISA: Serum was extracted by centrifuging blood in heparin-containing Microtainer LH vials (BD, Franklin Lakes, N.J.) for 10 minutes at 3000 g. Serum and cell-culture supernatants were analyzed for IL-1β, IL-6, TNF-α and IFN-γ using respective ELISA Ready-SET-Go (eBioscience, San Diego, Calif.) kits as instructed. Intensities were read using a Tecan SPECTRAFluor Plus spectrophotometer (Mannedorf, Switzerland).
# [7] = system: RAW264.7 cells; test: RT-PCR of inflammatory genes in RAW264.7 cells (Table 2); format: cell-based, mouse; conditions: 1 ug/ml
# Procedure: Real-time PCR (RT-PCR): Brains were dissected and tissues stored frozen at −70° C. until use. Hippocampal RNA was extracted using the RNeasy Tissue Mini Kit (Qiagen, Germany). Total RNA was reverse-transcribed (200 ng) using Impromp-II reverse transcriptase (Promega, Madison, Wis.) as instructed. RT-PCR was performed using Power SYBR®Green PCR Master Mix (Applied Biosystems, UK) in a 7900 HT Sequence Detection System (Applied Biosystems, Foster City, Calif.). Quantification was assessed at the logarithmic phase of the PCR reaction. The PCR annealing temperature was 60° C. for all primer pairs. GAPDH was used as a house-keeping gene.
# Shown are fold differences in RT-PCR products of RAW264.7 cells incubated with the noted doses of mEN101 or ODN1826. Note that ODN1826 affects IL1α, -1β, -6, -10, -12 and ICAM-1 gene expression at concentrations as low as 10 nM, whereas considerably higher doses of mEN101 are needed to attain similar effects. Nevertheless, mEN101 affects inflammatory gene expression even at 10 nM. 1 μg/ml LPS was used as positive control. (n=3, p<0.05 Mann-Whitney U-test compared to untreated controls, for all the data shown).
compound,measurement,setting,value
CCN(CC)CCCC(C)Nc1ccnc2cc(Cl)ccc12 (centres unmarked) [chloroquine],effect on mEN101 effects on NO production (FIG. 2A legend),[1],abolished
same,effect on 10 μM mEN101-driven increases in NO,[2],blocked
"C[C@]12C[C@H](O)[C@H]3[C@@H](CCC4=CC(=O)CC[C@@]43C)[C@@H]1CC[C@@H]2C(=O)CO [CORT, corticosterone]",LPS-induced NO production,[3],blocked
5′-CTGCCACGTTCTCCTGCA*C*C*-3′ [hEN101],"DEX (GR) Bmax, Scatchard plot analysis",[4]; 10 μM per FIG. 10D legend,increased
same,concentration from which effects on [3H]dexamethasone incorporation are detectable,[4]; 24 hours pre-incubation,≥ 1 µM
same,whole cell [3H]dexamethasone incorporation / binding,"[4]; 24 hours pre-incubation, dose-dependent",increased [^3H]dexamethasone incorporation
same,GR level,[5],not GR
same,colocalization of HSP90 and GR signals,[5],increased colocalization of HSP90 and GR signals
same,HSP90 level,[5]; dose dependent,upregulated HSP90
"5′-ggGGTCAACGTTGAgggggg (GGGGTCAACGTTGAGGGGGG; listed as DNA, chemistry not given here) [ODN1585, type-A CpG ODN, Invivogen]",NO production at doses parallel to ODN1826 (10-100 nM),[2]; 24 hours,totally ineffective
same,dose needed to initiate detectable NO overproduction,[2]; 24 hours,10 µM
same,induction of IFN-γ,[6],stronger for ODN1585 than ODN1826
"lipopolysaccharide [LPS, reference compound]",ICAM-1 RT-PCR product,[7],−3.74 log2 from NT
same,IL1a RT-PCR product,[7],8.86 log2 from NT
same,IL1b RT-PCR product,[7],5.42 log2 from NT
same,IL6 RT-PCR product,[7],3.81 log2 from NT
same,IL10 RT-PCR product,[7],3.20 log2 from NT
same,IL12 RT-PCR product,[7],8.75 log2 from NT
5′-TTTAGGGTTAGGGTTAGGGTTAGGG-3′ (dT*dT*dT*dA*dG*dG*dG*dT*dT*dA*dG*dG*dG*dT*dT*dA*dG*dG*dG*dT*dT*dA*dG*dG*dG) [ODN TTAGGG],effect on mEN101 effects on NO production (FIG. 2A legend),[1],abolished
same,effect on 10 μM mEN101-driven increases in NO,[2],blocked

# From patent US20110136897A1, “TOLL-LIKE RECEPTOR 9 AGONISTS FOR THE TREATMENT OF ANXIETY-RELATED DISORDERS AND INFLAMMATORY DISORDERS” (YISSUM RESEARCH DEVELOPMENT COMPANY OF THE HEBREW …, priority 2008, published 2011)
